The nature of test [1]: tooth brightness factor before/after treatment (non-limiting example in the description). Conditions: 1.5% carbamide peroxide, pH 6.5 phosphates; peroxidase 20 units pyrogallol/ml where present; 64% before treatment.
Test [2] is described as follows: speed with which a tetracycline solution is rendered colourless (spectrophotometer, 37° C.). In kind it is biochemical. The settings on record: no peroxidase; high carbamide peroxide concentrations; FIG. 2. From the text:
The mouth wash consists of a 2.4% carbamide peroxide solution in 0.1 M phosphate buffer, pH 6.5 and on the other hand, a peroxidase solution (120 units of pyrogallol/ml) in 0.1 M phosphate buffer, pH 6.5 which is fed into the container in which the de-staining reaction is to take place, immediately after the mouth wash.
The substance to be rendered colourless is tetracycline, which is solublised in water at a concentration of 0.015M. The maximum tetracycline absorption wavelength has been selected so as to monitor the de-staining speed. The de-staining speed is determined using a spectrophotometer which allows the absorption to be monitored continually, the reaction tray being thermostated at 37° C. The de-staining reaction speeds have been calculated from the relations between absorbency variation and the reaction time, and they have been expressed in nKat.
The necessary quantities of tetracycline solution, the mouth wash and enzyme (in this order) are placed in the reaction tray to obtain the parameter combinations according to which it is intended to evaluate the enzyme bleaching capacity.

SMILES strings stand for the structures.

Regarding `NC(N)=O.OO` [carbamide peroxide], in test [1], the “brightness factor of a tooth after treatment” value is 64%. Further, the “carbamide peroxide concentration from which de-staining speed saturates” value in test [2] is recorded as “approximately 0.70 M”.

These data come from US20050118116A1, “Dental bleaching product” (UNIVERSITAT DE LES ILLES BALEARS, LABORATORIOS KIN, S.A., priority 1999, published 2005).
